Eight molecules from PMC11597202, “Novel Thiazole-Fused [4,5-g] or [5,4-g]Quinazolin-8-ones and Their Quinazoline Analogues: Synthesis and Biological Evaluation” (Pharmaceuticals, 2024) can be followed below.

For one assay, the target named is T1, Haspin (Homo sapiens, UniProt Q8TF76).
T1 construct: amino acids 470 to Histone H3 peptide (1-21): (Other) 798, recombinant; host or cells: bacteria
T1 sequence (Q8TF76 470-798): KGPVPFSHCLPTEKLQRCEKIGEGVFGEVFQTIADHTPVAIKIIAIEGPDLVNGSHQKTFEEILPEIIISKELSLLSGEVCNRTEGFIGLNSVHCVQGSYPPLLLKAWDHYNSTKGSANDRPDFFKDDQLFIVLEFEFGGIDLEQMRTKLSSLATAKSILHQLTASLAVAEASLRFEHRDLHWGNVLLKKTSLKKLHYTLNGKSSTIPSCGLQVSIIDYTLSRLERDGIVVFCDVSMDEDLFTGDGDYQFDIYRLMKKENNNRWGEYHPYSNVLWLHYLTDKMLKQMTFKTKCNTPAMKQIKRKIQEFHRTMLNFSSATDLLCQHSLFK
As to the kind of experiment: ADP-Glo kinase inhibition assay, Haspin. The format is biochemical. The settings on record: percentage of maximum activity of the DMSO control, mean n = 2, 10 µM ATP, read-out: Residual activity Haspin; for remaining activity at 1 µM: 1 μM compound; for remaining activity at 10 µM: 10 μM compound. As for the experimental part: (§1) Kinase enzymatic activities were assayed in 384-well plates using the ADP-Glo^TM assay kit (Promega, Madison, WI, USA) according to the recommendations of the manufacturer. This luminescent ADP detection assay was described by Zegzouti and co-workers and provides a homogeneous and high-throughput screening method to measure kinase activity by quantifying the amount of ADP produced during a kinase reaction. Briefly, the reactions were carried out in a final volume of 6 µL for 30 min at 30 °C in an appropriate kinase buffer (10 mM MgCl2, 1 mM EGTA, 1 mM DTT, 25 mM Tris-HCl pH 7.5, 50 µg/mL heparin), with peptide or protein as substrate in the presence of 10 µM ATP. Peptide substrates were obtained from ProteoGenix (Schiltigheim, France) or Sigma for Histone H1, Poly (L-glutamic acid–L-tyrosine) sodium salt, Casein and MBP. After that, 6 µL of ADP-Glo^TM Kinase Reagent was added to stop the kinase reaction. After an incubation time of 50 min at room temperature (rt), 12 µL of Kinase Detection Reagent was added for one hour at rt. The transmitted signal was measured using the Envision (PerkinElmer, Waltham, MA, USA) microplate luminometer and expressed as Relative Light Units (RLUs). Kinase activities are expressed as percentages of remaining kinase activities detected after treatment with 1 or 10 µM of the tested compounds. The maximum kinase activity was measured in the absence of inhibitor but with an equivalent dose of DMSO (solvent of the tested compounds).
(§2) 3. Kinase inhibition assays
(§3) Kinase enzymatic activities were assayed in 384-well plates using the ADP-GloTM assay kit (Promega, Madison, WI) according to the recommendations of the manufacturer. This luminescent ADP detection assay was described by Zegzouti and co-workers and provides a homogeneous and high-throughput screening method to measure kinase activity by quantifying the amount of ADP produced during a kinase reaction. Briefly, the reactions were carried out in a final volume of 6 µl for 30 min at 30°C in appropriate kinase buffer (10 mM MgCl2, 1 mM EGTA, 1 mM DTT, 25 mM Tris-HCl pH 7.5, 50 µg/mL heparin), with peptide or protein as substrate in the presence of 10 µM ATP. Peptide substrates were obtained from ProteoGenix (Schiltigheim, France) or Sigma for Histone H1, Poly (L-glutamic acid – L-tyrosine) sodium salt, Casein and MBP. After that, 6 µL of ADP-GloTM Kinase Reagent was added to stop the kinase reaction. After an incubation time of 50 min at room temperature (rt), 12 µL of Kinase Detection Reagent was added for 1 h at rt. The transmitted signal was measured using the Envision (PerkinElmer, Waltham, MA) microplate luminometer and expressed in Relative Light Unit (RLU). Kinase activities are expressed in percentages of remaining kinase activities detected after treatment with 1 or 10 µM of the tested compounds. The maximal kinase activity is measured in the absence of inhibitor but with an equivalent dose of DMSO (solvent of the tested compounds).
(§4) Table. Human protein kinases tested in the panel: CDK9, HASPIN, PIM1, GSK3b, CK1ε, JAK3, CLK1 […]
(§5) Protein Kinase Enzyme Description Substrate1
(§6) (Family) (Working concentration)
(§7) CDK9/CyclinT Human, recombinant, expressed by Peptide:
(§8) (CMGC) baculovirus in Sf9 insect cells […]
(§9) CLK1 Human, recombinant, expressed by Peptide: […]
(§10) (CMGC) baculovirus in Sf9 insect cells (57.3µM)
(§11) DYRK1A Human, recombinant, expressed by Peptide: […]
(§12) (CMGC) baculovirus in Sf9 insect cells (10.7µM)
(§13) PIM1 Human proto-oncogene, recombinant, Peptide: […]
(§14) (CAMK) expressed in bacteria (630 µM)
(§15) GSK3 Human, recombinant, expressed by Peptide:
(§16) (CMGC) baculovirus in Sf9 insect cells […]pEDEEE 3
(§17) HASPIN Human, kinase domain, amino acids 470 to Histone H3 peptide (1-21):
(§18) (Other) 798, recombinant, expressed in bacteria […] (8µM)
(§19) CK1ε Human, recombinant, expressed by Peptide: […]pAYSITA 2
(§20) (CK1) baculovirus in Sf9 insect cells (170µM)
(§21) JAK3 Human, recombinant, expressed by Peptide: […]
(§22) (TK) baculovirus in Sf9 insect cells (94µM) […]
On the technique in general: ADP-Glo turns the ADP formed in a reaction into a luminescent signal.

A further assay deals with T2, Pim-1 (Homo sapiens, UniProt P11309).
T2 construct: host or cells: bacteria
As to the kind of experiment: ADP-Glo kinase inhibition assay, Pim-1. Type of assay: biochemical. The settings on record: percentage of maximum activity of the DMSO control, mean n = 2, 10 µM ATP, read-out: Residual activity Pim-1; for remaining activity at 1 µM: 1 μM compound; for remaining activity at 10 µM: 10 μM compound. As for the experimental part:
as §1, §2, §3, §4, §5, §6, §7, §8, §9, §10, §11, §12, §13, §14, §15, §16, §17, §18, §19, §20, §21, §22

T2 sequence (P11309 whole entry): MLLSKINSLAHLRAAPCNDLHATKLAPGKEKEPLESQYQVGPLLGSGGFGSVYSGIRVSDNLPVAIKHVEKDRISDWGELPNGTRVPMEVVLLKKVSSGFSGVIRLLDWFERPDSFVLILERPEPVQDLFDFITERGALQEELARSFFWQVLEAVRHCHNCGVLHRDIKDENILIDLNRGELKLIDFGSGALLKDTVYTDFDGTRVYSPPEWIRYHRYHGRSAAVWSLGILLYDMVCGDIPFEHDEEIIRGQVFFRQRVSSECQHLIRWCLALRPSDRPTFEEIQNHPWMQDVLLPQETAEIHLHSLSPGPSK

Take `COC(=N)c1nc2ccc3c(=O)n(Cc4ccccc4)cnc3c2s1` [Compound 6d, Methyl 7-benzyl-6-oxo-6,7-dihydrothiazolo[4,5-h]quinazoline-2-carbimidate]: at Haspin, the remaining activity at 1 µM came out at 82% and the remaining activity at 10 µM turned out to be 51%. Also, at Pim-1, the remaining activity at 1 µM amounted to 92% and the remaining activity at 10 µM worked out at 94%.

As to `COC(=N)c1nc2cc3c(Nc4ccc(OC)cc4F)ncnc3cc2s1` [Compound 15a, Methyl 8-[(2-fluoro-4-methoxyphenyl)amino]thiazolo[4,5-g]quinazoline-2-carbimidate], the remaining activity at 1 µM at Haspin was 83%; at Pim-1, 71%. Besides, the remaining activity at 10 µM on Haspin amounted to 66%; at Pim-1, 113%.

On to `COC(=N)c1nc2cc3c(=O)n(Cc4ccccc4)cnc3cc2s1` [Compound 6a, Methyl 7-benzyl-8-oxo-7,8-dihydrothiazolo[4,5-g]quinazoline-2-carbimidate], for which, at Haspin, the remaining activity at 1 µM was 89% and the remaining activity at 10 µM came to 105%. For the same molecule, at Pim-1, the remaining activity at 1 µM was found to be 80% and the remaining activity at 10 µM amounted to 133%.

In the case of `COC(=N)c1nc2ccc3ncn(Cc4ccccc4)c(=O)c3c2s1` [Compound I, methyl 8-benzyl-9-oxo-8,9-dihydrothiazolo[5,4-f]quinazoline-2-carbimidate, reference compound], at Haspin, the remaining activity at 1 µM came to 60% and the remaining activity at 10 µM was 45%. Besides, at Pim-1, the remaining activity at 1 µM was 79% and the remaining activity at 10 µM worked out at 77%.

As to `COC(=N)c1nc2ccc3ncnc(Nc4ccc(OC)cc4F)c3c2s1` [Compound II, methyl 9-[(2-fluoro-4-methoxyphenyl)amino]thiazolo[5,4-f]quinazoline-2-carbimidate, reference compound], on Haspin, the remaining activity at 1 µM worked out at 31% and the remaining activity at 10 µM is 8%. Moreover, at Pim-1, the remaining activity at 1 µM was determined as 52% and the remaining activity at 10 µM turned out to be 32%.

Turning to `COC(=N)c1nc2cc3ncnc(Nc4ccc(OC)cc4F)c3cc2s1` [Compound 15b, Methyl 8-[(2-fluoro-4-methoxyphenyl)amino]thiazolo[5,4-g]quinazoline-2-carbimidate], on Haspin, the remaining activity at 1 µM was 80% and the remaining activity at 10 µM worked out at 88%. In addition, on Pim-1, the remaining activity at 1 µM amounted to 74% and the remaining activity at 10 µM is 105%.

`COC(=N)c1nc2cc3ncn(Cc4ccccc4)c(=O)c3cc2s1` [Compound 6b, Methyl 7-benzyl-8-oxo-7,8-dihydrothiazolo[5,4-g]quinazoline-2-carbimidate]: the remaining activity at 1 µM on Haspin is 95%; at Pim-1, 90%. Further, the remaining activity at 10 µM at Haspin turned out to be 82%; on Pim-1, 78%.

For the molecule `COC(=N)c1nc2c(ccc3c(=O)n(Cc4ccccc4)cnc32)s1` [Compound 6c, Methyl 7-benzyl-6-oxo-6,7-dihydrothiazolo[5,4-h]quinazoline-2-carbimidate], on Haspin, the remaining activity at 1 µM came to 39% and the remaining activity at 10 µM was found to be 12%. For the same molecule, at Pim-1, the remaining activity at 1 µM turned out to be 74% and the remaining activity at 10 µM stood at 86%.
